Assay results published in article PMC9120017, “Inhibition mechanism of the chloride channel TMEM16A by the pore blocker 1PBC” (Nature Communications, 2022).
Like-named read-outs stand apart in the source and are kept apart here.

Target: T1, wild-type mouse TMEM16A (Mus musculus, UniProt Q8BHY3)
T1 construct: expressed in transfected cells; host or cells: HEK293T
T1 sequence (Q8BHY3 1-960): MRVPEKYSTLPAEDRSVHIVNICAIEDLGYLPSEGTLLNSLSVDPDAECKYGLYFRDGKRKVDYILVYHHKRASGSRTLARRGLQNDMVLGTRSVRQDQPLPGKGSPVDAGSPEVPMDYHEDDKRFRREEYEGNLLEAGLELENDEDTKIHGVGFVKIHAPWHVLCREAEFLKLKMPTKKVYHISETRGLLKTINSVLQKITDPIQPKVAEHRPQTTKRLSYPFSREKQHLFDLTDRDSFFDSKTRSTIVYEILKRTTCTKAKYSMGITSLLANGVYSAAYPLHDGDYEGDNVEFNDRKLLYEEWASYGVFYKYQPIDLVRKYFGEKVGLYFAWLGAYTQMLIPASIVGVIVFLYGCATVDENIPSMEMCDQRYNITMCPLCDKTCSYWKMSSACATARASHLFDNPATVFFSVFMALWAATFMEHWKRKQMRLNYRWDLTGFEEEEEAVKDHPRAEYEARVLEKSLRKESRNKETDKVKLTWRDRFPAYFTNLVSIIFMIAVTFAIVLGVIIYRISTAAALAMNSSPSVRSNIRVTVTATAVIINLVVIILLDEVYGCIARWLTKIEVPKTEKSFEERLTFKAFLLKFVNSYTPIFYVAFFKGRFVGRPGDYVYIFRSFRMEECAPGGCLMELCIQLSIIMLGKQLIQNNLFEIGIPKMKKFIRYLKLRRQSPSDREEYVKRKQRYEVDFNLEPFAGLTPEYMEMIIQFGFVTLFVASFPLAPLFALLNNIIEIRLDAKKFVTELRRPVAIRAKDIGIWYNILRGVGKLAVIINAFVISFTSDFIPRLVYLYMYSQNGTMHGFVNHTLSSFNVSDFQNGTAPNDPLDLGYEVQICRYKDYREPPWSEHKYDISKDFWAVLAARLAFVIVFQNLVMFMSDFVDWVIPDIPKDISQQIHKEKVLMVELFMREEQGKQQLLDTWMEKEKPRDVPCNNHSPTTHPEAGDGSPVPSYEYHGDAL
Test: Inside-out patch recording of 1PBC block, wild-type TMEM16A
Format: cell-based
Settings: for remaining activity at 1 µM / remaining activity at 3 µM: read-out: I/Imax
Procedure: HEK293T cells (ATCC CRL-1573) were maintained in Dulbecco’s modified Eagle’s medium (DMEM; Sigma-Aldrich) supplemented with 10 U ml^−1 penicillin, 0.1 mg ml^−1 streptomycin (Sigma-Aldrich), 2 mM L-glutamine (Sigma-Aldrich), and 10% FBS (Sigma-Aldrich) in a humidified atmosphere containing 5% CO2 at 37 °C. HEK293S GnTI^− cells (ATCC CRL-3022) were maintained in HyClone HyCell TransFx-H medium (GE Healthcare) supplemented with 10 U ml^−1 penicillin, 0.1 mg ml^−1 streptomycin, 4 mM L-glutamine, 0.15% poloxamer 188 (Sigma-Aldrich), and 1% FBS in an atmosphere containing 5% CO2 at 185 rpm at 37 °C. The ac splice variant of mouse TMEM16A (UniProt ID: Q8BHY3), mouse TMEM16B (UniProt ID: Q8CFW1), or mouse TMEM16F (UniProt ID: Q6P9J9) bearing a 3C cleavage site, a Venus YFP, a Myc tag, and a Streptavidin-binding peptide (SBP) downstream of the open reading frame in a modified pcDNA3.1 vector (Invitrogen) were used as described previously[21],[31]. Mutations were introduced using a modified QuikChange method[58] and were verified by sequencing.
HEK293T cells were transfected with 3–4 μg DNA per 6 cm Petri dish using the calcium phosphate co-precipitation method and were used within 24–96 h after transfection. Recordings were performed on inside-out patches excised from HEK293T cells expressing the construct of interest. Patch pipettes were pulled from borosilicate glass capillaries (O.D. 1.5 mm, I.D. 0.86 mm, Sutter Instrument) and were fire-polished with a microforge (Narishige) before use. Pipette resistance was typically 3–8 MΩ when filled with the recording solutions detailed below. Seal resistance was typically 4 GΩ or higher. Voltage-clamp recordings were made using Axopatch 200B, Digidata 1550, and Clampex 10.7 (Molecular Devices). Analog signals were filtered with the in-built 4-pole Bessel filter at 10 kHz and were digitized at 20 kHz. Solution exchange was achieved using a gravity-fed system through a theta glass pipette mounted on an ultra-fast piezo-driven stepper (Siskiyou). […] All recordings were performed at 20 °C.
A symmetrical ionic condition was used throughout. Stock solution with Ca^2+-EGTA contained 150 mM NaCl, 5.99 mM Ca(OH)2, 5 mM EGTA, and 10 mM HEPES at pH 7.40. Stock solution with EGTA contained 150 mM NaCl, 5 mM EGTA, and 10 mM HEPES at pH 7.40. Free Ca^2+ concentrations were adjusted by mixing the stock solutions at the required ratios calculated using the WEBMAXC program (http://web.stanford.edu/~cpatton/webmaxcS.htm). Patch pipettes were filled with the stock solution with Ca^2+-EGTA, which has a free Ca^2+ concentration of 1 mM. 1PBC (ChemBridge) stock was reconstituted in anhydrous DMSO (Sigma-Aldrich) at 100 mM and stored at −20 °C. Working solutions with 1PBC were prepared by serial dilution. Unless otherwise stated, experiments were performed at a saturating Ca^2+ concentration as shown in Supplementary Table 1 and the primary data were corrected for current rundown as described previously[21],[25].
Concentration-response relations, obtained from the ratio of the I-V plots before and after the application of the blocker, were fitted to the Hill equation,1 I/Imax=1/1+IC50/[blocker]^h where I/Imax is the normalized current responses, IC50 defines the concentration at which inhibition is at its half-maximum, and h is the Hill coefficient.

Hill coefficient for 1PBC block: 1 | IC50 (0 mV, 2 µM Ca2+): 4.4 µM | IC50 (0.4 μM Ca2+, 80 mV, empirical Hill fit of data scaled to open probability): 3.2 µM | IC50 (0.8 μM Ca2+, 80 mV, empirical Hill fit of data scaled to open probability): 2.13 µM | Steady-state current (normalized) (1 µM 1PBC, 0 mV, 2 µM Ca2+): 0.001783 | remaining activity at 1 µM (1 µM 1PBC, 0 mV, 2 µM Ca2+): 73% | I/Imax scaled to open probability (1 µM 1PBC, 400 nM Ca2+, 80 mV): 0.3757 | I/Imax scaled to open probability (1 µM 1PBC, 800 nM Ca2+, 80 mV): 0.4419 | I/Imax scaled to open probability (1 µM 1PBC, 2 µM Ca2+, 80 mV): 0.5218 | Steady-state current (normalized) (1 µM 1PBC, 20 mV, 2 µM Ca2+): 0.134 | remaining activity at 1 µM (1 µM 1PBC, 20 mV, 2 µM Ca2+): 68.9% | Steady-state current (normalized) (1 µM 1PBC, 40 mV, 2 µM Ca2+): 0.2463 | remaining activity at 1 µM (1 µM 1PBC, 40 mV, 2 µM Ca2+): 65.3% | Steady-state current (normalized) (1 µM 1PBC, 60 mV, 2 µM Ca2+): 0.3454 | remaining activity at 1 µM (1 µM 1PBC, 60 mV, 2 µM Ca2+): 62.6% | Steady-state current (normalized) (1 µM 1PBC, 80 mV, 2 µM Ca2+): 0.4256 | remaining activity at 1 µM (1 µM 1PBC, 80 mV, 2 µM Ca2+): 60.1% | Steady-state current (normalized) (1 µM 1PBC, 100 mV, 2 µM Ca2+): 0.5103 | remaining activity at 1 µM (1 µM 1PBC, 100 mV, 2 µM Ca2+): 60.1% | Steady-state current (normalized) (1 µM 1PBC, 120 mV, 2 µM Ca2+): 0.5951 | remaining activity at 1 µM (1 µM 1PBC, 120 mV, 2 µM Ca2+): 61.1% | Steady-state current (normalized) (1 µM 1PBC, 140 mV, 2 µM Ca2+): 0.7035 | remaining activity at 1 µM (1 µM 1PBC, 140 mV, 2 µM Ca2+): 64.7% | Steady-state current (normalized) (1 µM 1PBC, -20 mV, 2 µM Ca2+): -0.1486 | remaining activity at 1 µM (1 µM 1PBC, -20 mV, 2 µM Ca2+): 77.2% | Steady-state current (normalized) (1 µM 1PBC, -40 mV, 2 µM Ca2+): -0.3126 | remaining activity at 1 µM (1 µM 1PBC, -40 mV, 2 µM Ca2+): 80.5% | Steady-state current (normalized) (1 µM 1PBC, -60 mV, 2 µM Ca2+): -0.4807 | remaining activity at 1 µM (1 µM 1PBC, -60 mV, 2 µM Ca2+): 83% | Steady-state current (normalized) (1 µM 1PBC, -80 mV, 2 µM Ca2+): -0.661 | remaining activity at 1 µM (1 µM 1PBC, -80 mV, 2 µM Ca2+): 86.1% | Steady-state current (normalized) (1 µM 1PBC, -100 mV, 2 µM Ca2+): -0.836 | remaining activity at 1 µM (1 µM 1PBC, -100 mV, 2 µM Ca2+): 88% | Steady-state current (normalized) (1 µM 1PBC, -120 mV, 2 µM Ca2+): -1.004 | remaining activity at 1 µM (1 µM 1PBC, -120 mV, 2 µM Ca2+): 89.7% | Steady-state current (normalized) (1 µM 1PBC, -140 mV, 2 µM Ca2+): -1.145 | remaining activity at 1 µM (1 µM 1PBC, -140 mV, 2 µM Ca2+): 89.1% | IC50 (2 μM Ca2+, 80 mV, empirical Hill fit of data scaled to open probability): 1.94 µM | Steady-state current (normalized) (3 µM 1PBC, 0 mV, 2 µM Ca2+): 0.001316 | remaining activity at 3 µM (3 µM 1PBC, 0 mV, 2 µM Ca2+): 53.9% | I/Imax scaled to open probability (3 µM 1PBC, 400 nM Ca2+, 80 mV): 0.2553 | I/Imax scaled to open probability (3 µM 1PBC, 800 nM Ca2+, 80 mV): 0.2864 | I/Imax scaled to open probability (3 µM 1PBC, 2 µM Ca2+, 80 mV): 0.3306 | Steady-state current (normalized) (3 µM 1PBC, 20 mV, 2 µM Ca2+): 0.0952 | remaining activity at 3 µM (3 µM 1PBC, 20 mV, 2 µM Ca2+): 48.9% | Steady-state current (normalized) (3 µM 1PBC, 40 mV, 2 µM Ca2+): 0.1678 | remaining activity at 3 µM (3 µM 1PBC, 40 mV, 2 µM Ca2+): 44.5%
Compound: N#Cc1c(C(F)(F)F)cc(O)n2c1nc1ccccc12 [1PBC]
